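Test compounds were applied to cells in 96-well plates for 48 hours at 5 doses. TGI: concentration producing complete growth inhibition.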
How the values were obtained:
Assay in all cases: NCI-60 cell line screen, 48 h
[1] = test system: SF-268 CNS
[2] = test system: SF-539 CNS
[3] = test system: UO-31 renal
[4] = test system: HOP-62 NSCLC
[5] = test system: 786-0 renal
[6] = test system: HCT-15 colon
[7] = test system: SK-MEL-2 melanoma
[8] = test system: UACC-257 melanoma
[9] = test system: UACC-62 melanoma
[10] = test system: HL-60(TB) leukemia
[11] = test system: CAKI-1 renal
[12] = test system: SK-OV-3 ovarian
[13] = test system: SNB-19 CNS
[14] = test system: HCT-116 colon
[15] = test system: EKVX NSCLC
[16] = test system: NCI-H226 lung
[17] = test system: M14 melanoma
[18] = test system: MDA-MB-435
[19] = test system: PC-3 prostate

`COC(=O)C(C(=O)C(=O)Nc1ccccc1C)c1nc2ccc([N+](=O)[O-])cc2[nH]c1=O` (stereo not drawn) gave a TGI [1] of over 100 µM, a TGI [2] of over 100 µM and a TGI [3] of over 100 µM. For the same compound, the TGI [4] was over 100 µM, the TGI [5] was over 100 µM and the TGI [6] was over 100 µM. The TGI [7] was over 100 µM, the TGI [8] was over 100 µM and the TGI [9] was over 100 µM. For the same compound, the TGI [10] was over 100 µM, the TGI [11] was over 100 µM and the TGI [12] was over 100 µM. The TGI [13] was over 100 µM, the TGI [14] was over 100 µM and the TGI [15] was over 100 µM. It also gave a TGI [16] of over 100 µM and a TGI [17] of over 100 µM.

For `CCCC(C(=O)OC)C1N=C(NC#N)N(Cc2ccccc2)C1=O` (stereo not drawn), the TGI [1] was over 100 µM, the TGI [3] was over 100 µM and the TGI [4] was over 100 µM. For the same compound, the TGI [5] was over 100 µM, the TGI [6] was over 100 µM and the TGI [7] was over 100 µM. For the same compound, the TGI [8] was over 100 µM, the TGI [9] was over 100 µM and the TGI [10] was over 100 µM. It also gave a TGI [11] of over 100 µM, a TGI [12] of over 100 µM and a TGI [13] of over 100 µM. It also gave a TGI [14] of over 100 µM, a TGI [15] of over 100 µM and a TGI [17] of over 100 µM.

`CC1CCc2c(sc3ncnc(N/N=C/c4ccc(Cl)cc4)c23)C1` (stereo not drawn) showed a TGI [1] of over 100 µM, a TGI [3] of 29.7 µM and a TGI [4] of over 100 µM. The TGI [5] was over 100 µM, the TGI [6] was over 100 µM and the TGI [7] was over 100 µM. For the same compound, the TGI [8] was 70.3 µM, the TGI [9] was over 100 µM and the TGI [10] was 43.5 µM. The TGI [11] was 89.5 µM, the TGI [12] was over 100 µM and the TGI [13] was 93 µM. The TGI [14] was over 100 µM, the TGI [15] was 81.6 µM and the TGI [16] was 44.4 µM. For the same compound, the TGI [17] was 68.2 µM.

Compound `COc1ccc(CNc2nc3cc(C(F)(F)F)ccc3nc2C(=O)O)cc1` has a TGI [2] of 49.2 µM, a TGI [3] of 42.5 µM and a TGI [4] of 55.5 µM. The TGI [5] was 63.2 µM, the TGI [6] was 69.3 µM and the TGI [7] was 62.2 µM. For the same compound, the TGI [8] was over 100 µM, the TGI [9] was 49.8 µM and the TGI [11] was over 100 µM. It also gave a TGI [12] of over 100 µM, a TGI [13] of over 100 µM and a TGI [14] of 41 µM. For the same compound, the TGI [18] was 50.6 µM, the TGI [15] was 78.6 µM and the TGI [16] was over 100 µM. It also gave a TGI [19] of over 100 µM and a TGI [17] of 58.1 µM.

In the case of `CC(C)[Si](Oc1ccc(CC2N(C(=O)c3ccc([N+](=O)[O-])cc3)C(CCc3ccccc3)CC2(C)C=O)cc1)(C(C)C)C(C)C` (stereo not drawn), the TGI [1] is reported as 54.8 µM, the TGI [2] is reported as 23.2 µM and the TGI [3] is reported as over 100 µM. For the same compound, the TGI [4] was 31.5 µM, the TGI [5] was over 100 µM and the TGI [6] was over 100 µM. It also gave a TGI [7] of over 100 µM, a TGI [8] of over 100 µM and a TGI [9] of over 100 µM. It also gave a TGI [11] of over 100 µM, a TGI [12] of over 100 µM and a TGI [13] of 59.4 µM. For the same compound, the TGI [15] was over 100 µM, the TGI [16] was 98.2 µM and the TGI [19] was over 100 µM.

Compound `CCN(CC)C(=O)CC12CCCCC1=Nc1ccccc12` (stereo not drawn) has a TGI [2] of over 100 µM, a TGI [4] of over 100 µM and a TGI [5] of over 100 µM. For the same compound, the TGI [6] was over 100 µM, the TGI [7] was over 100 µM and the TGI [8] was over 100 µM. It also gave a TGI [9] of over 100 µM, a TGI [10] of over 100 µM and a TGI [11] of over 100 µM. The TGI [12] was over 100 µM, the TGI [14] was over 100 µM and the TGI [15] was over 100 µM. It also gave a TGI [17] of over 100 µM.

`C=C1CN2CCc3c([nH]c4ccccc34)C2CC1CC(=O)N(C)C` (stereo not drawn) showed a TGI [1] of over 309 µM, a TGI [2] of over 309 µM and a TGI [4] of over 309 µM. It also gave a TGI [5] of over 309 µM, a TGI [6] of over 309 µM and a TGI [7] of over 309 µM. For the same compound, the TGI [8] was over 309 µM, the TGI [9] was over 309 µM and the TGI [10] was over 309 µM. For the same compound, the TGI [11] was over 309 µM, the TGI [12] was over 309 µM and the TGI [13] was over 309 µM. For the same compound, the TGI [14] was over 309 µM, the TGI [15] was over 309 µM and the TGI [16] was over 309 µM.

With `Cc1c(C#N)c2nc3ccccc3n2c(=O)/c1=C/Nc1ccc(Cl)cc1` the TGI [1] was over 100 µM, the TGI [2] was 30.5 µM and the TGI [3] was 70.9 µM. The TGI [4] was 33.1 µM, the TGI [5] was 20.7 µM and the TGI [6] was over 100 µM. The TGI [7] was 46.6 µM, the TGI [8] was over 100 µM and the TGI [9] was 47.4 µM. The TGI [10] was over 100 µM, the TGI [11] was over 100 µM and the TGI [12] was 32.4 µM. The TGI [13] was 27.9 µM, the TGI [14] was over 100 µM and the TGI [18] was over 100 µM. For the same compound, the TGI [15] was over 100 µM, the TGI [16] was over 100 µM and the TGI [17] was 40.9 µM.

`COc1cc(C(c2ccc3c(c2)OCO3)C2SCCCS2)cc(OC)c1OC` (stereo not drawn) gave a TGI [1] of over 100 µM, a TGI [3] of over 100 µM and a TGI [4] of over 100 µM. It also gave a TGI [5] of 9.68 µM, a TGI [6] of 6.58 µM and a TGI [7] of over 100 µM. The TGI [8] was over 100 µM, the TGI [9] was 28.2 µM and the TGI [11] was 20.1 µM. It also gave a TGI [12] of over 100 µM, a TGI [13] of 5.41 µM and a TGI [14] of 10.6 µM. The TGI [15] was 19.6 µM, the TGI [16] was 7.11 µM and the TGI [19] was over 100 µM. The TGI [17] was 95.5 µM.

`Cc1ccc(-c2cc(=O)c(=O)[nH][nH]2)cc1` was tested, and the TGI [1] was over 100 µM, the TGI [2] was over 100 µM and the TGI [3] was over 100 µM. For the same compound, the TGI [4] was over 100 µM, the TGI [5] was over 100 µM and the TGI [6] was over 100 µM. For the same compound, the TGI [7] was over 100 µM, the TGI [8] was over 100 µM and the TGI [9] was over 100 µM. The TGI [11] was over 100 µM, the TGI [12] was over 100 µM and the TGI [14] was over 100 µM. It also gave a TGI [18] of over 100 µM, a TGI [15] of over 100 µM and a TGI [16] of over 100 µM. It also gave a TGI [19] of over 100 µM and a TGI [17] of over 100 µM.

For `N#C/C(=C\c1ccc[nH]1)C(=O)c1ccccc1`, the TGI [1] was over 100 µM, the TGI [2] was over 100 µM and the TGI [3] was over 100 µM. The TGI [4] was over 100 µM, the TGI [5] was over 100 µM and the TGI [6] was over 100 µM. For the same compound, the TGI [7] was over 100 µM, the TGI [8] was over 100 µM and the TGI [9] was over 100 µM. The TGI [10] was over 100 µM, the TGI [11] was over 100 µM and the TGI [12] was over 100 µM. For the same compound, the TGI [13] was over 100 µM, the TGI [14] was over 100 µM and the TGI [15] was over 100 µM. For the same compound, the TGI [16] was over 100 µM and the TGI [17] was over 100 µM.

Compound `O=C1N[C@H](C(=O)O)[C@@H](c2ccc(OCc3ccccc3)cc2)O1` has a TGI [1] of 87.9 µM, a TGI [3] of over 100 µM and a TGI [4] of 33.2 µM. The TGI [5] was 65.6 µM, the TGI [6] was over 100 µM and the TGI [7] was over 100 µM. The TGI [8] was over 100 µM, the TGI [9] was over 100 µM and the TGI [11] was over 100 µM. The TGI [12] was over 100 µM, the TGI [13] was 45 µM and the TGI [14] was over 100 µM. The TGI [18] was over 100 µM, the TGI [15] was 89.1 µM and the TGI [16] was 55.7 µM. The TGI [19] was over 100 µM and the TGI [17] was over 100 µM.

— PubChem BioAssay (NCI)
